Data set [1] in a line: Supersaturation / spontaneous crystallisation in fermentation solution (heat flow calorimeter, turbidity sensor; MethB). In kind it is physicochemical. As to the method:
Within the temperature range of 44° C. to 52° C. the solubility of riboflavin dihydrate and within the temperature range of 44° C. to 59° C. the spontaneous crystallization of riboflavin were investigated. […] In another experiment riboflavin was dissolved at a concentration of 0.7 g l^−1 and at a temperature of 69° C.
The experiments were conducted in a heat flow calorimeter. The process of […] by heating and crystallisation by cooling was monitored by a turbidity sensor. 36 mg of crystals of riboflavin anhydrate I or 60 mg of the crystalline form of riboflavin monohydrate or 120 mg of crystals of riboflavin dihydrate, respectively, were suspended in the fermentation solution and heated to 80° C. at a rate of 0.1° C. per minute. The temperature was held during 60 min. Then the system was cooled again to 20° C. at a rate of 0.1° C./min.
Therefore, another method (MethB) was applied to determine the supersaturation at 39° C.: 420 mg of crystals of riboflavin tetrahydrate were suspended and fully dissolved by heating to 69° C. The concentration of riboflavin was 0.6 mg ml^−1. After cooling again to 39° C., the temperature was kept constant.

Assay in data set [2]: not given
The source holds these as a separate data set.

For data set [3] the following is noted: relative humidity of 95%, samples prepared by method of U.S. Pat. No. 2,603,633. An excerpt:
A process for the preparation of riboflavin tetrahydrate is described in U.S. Pat. No. 2,603,633. The process basically uses a solvent to rapidly precipitate the riboflavin in order to obtain the desired tetrahydrate “type C” (modification).

A short description of data set [4]: Soluble fraction of riboflavin in induced and uninduced cultures. To be noted: fermentation culture induced with seed crystals. Type of data set: physicochemical. The protocol:
500 mg of crystals of riboflavin monohydrate were sterilized at 140° C. for 50 min in an oven, suspended in 5 ml ethanol for 10-200 min, preferably 20-40 min and prior induction 10 ml sterile H2O were added for better handling of the liquid. The suspension was added to the bioreactor after 6 h by a sterile bottle with needle. Crystals of riboflavin dihydrate were formed and in the culture remained monoseptic. From these experiments, it can be concluded that it is possible to direct the crystal modification to riboflavin dihydrate.
In case of the induced cultures this phenomenon is not observed. The solubility of riboflavin (approximately 0.4 gl^−1) is not exceeded. It is controlled by x-ray diffraction whether the crystalline form of the crystals changes during the sterilization procedure.

Take `Cc1cc2nc3c(=O)[nH]c(=O)nc-3n(C[C@H](O)[C@H](O)[C@H](O)CO)c2cc1C` [riboflavin anhydrate I, reference compound]: the “position of the supersaturation line” value in data set [1] (39° C., estimated) was “above 0.6 g l^−1”. Besides, the “partial transformation into riboflavin dihydrate” value (stirred slurry only containing riboflavin anhydrate I, 4° C., in 56 days) is listed as 80%.

As to `Cc1cc2nc3c(=O)[nH]c(=O)nc-3n(C[C@H](O)[C@H](O)[C@H](O)CO)c2cc1C` [riboflavin anhydrate III], the “range of relative humidity in which the crystalline form was identified” value in data set [2] (second sample (type C), DVS) was determined as 0% < RH % RH.

Turning to `Cc1cc2nc3c(=O)[nH]c(=O)nc-3n(C[C@H](O)[C@H](O)[C@H](O)CO)c2cc1C` [riboflavin anhydrate II], the “range of relative humidity at which the crystalline form appeared” value in data set [2] (sample modification B/C, DVS with parallel X-ray diffraction, ambient temperature) amounted to 0% RH.

On to `Cc1cc2nc3c(=O)[nH]c(=O)nc-3n(C[C@H](O)[C@H](O)[C@H](O)CO)c2cc1C` [riboflavin dihydrate], for which, in data set [2] (relative humidity of 20%, decreasing RH), the “water contained in the dihydrate structure” value is listed as “about 1.3 mol water per mol riboflavin”. This molecule yielded a water uptake in data set [2] (relative humidity of about 92%, increasing RH, ambient temperature, sample B/C) of 9.57 wt.-%. Moreover, the “time for complete transformation into riboflavin anhydrate I” value (80° C.) was ≤ 20 s. Besides, the “partial transformation into riboflavin anhydrate I” value (stirred slurry of pure riboflavin dihydrate, 23° C., in 11 days, Raman spectroscopy) was 80%.

`Cc1cc2nc3c(=O)[nH]c(=O)nc-3n(C[C@H](O)[C@H](O)[C@H](O)CO)c2cc1C.O.O.O.O` [riboflavin tetrahydrate]: the “time to transform into riboflavin dihydrate” value in data set [3] was “about 100 min”. In addition, the “time until crystallisation started” value in data set [1] (0.6 mg ml^−1 riboflavin, dissolved at 69° C., cooled to and kept at 39° C.) came to 3 h. In data set [1] (0.7 mg ml^−1, dissolved at 69° C., cooling), the “temperature of spontaneous crystallisation” value stood at 46 °C.

As to `Cc1cc2nc3c(=O)[nH]c(=O)nc-3n(C[C@H](O)[C@H](O)[C@H](O)CO)c2cc1C` [riboflavin], the supersaturation line entry in data set [1] (39° C., MethB, concluded from the experiments) is “below 0.6 mg ml^−1”. Besides, the solubility of riboflavin result in data set [4] is “approximately 0.4 gl^−1”.

The values above are taken from US7670800B2, “Process for the purification of riboflavin” (DSM IP Assets B.V., priority 2003, dated 2010).
